# Data reported in patent US20140079717A1, “Compositions and Methods to Prevent Cell Transformation and Cancer Metastasis” (CORNELL UNIVERSITY, priority 2011, published 2014).
# How the values were obtained:
# [1] = target: T1, tTG (Homo sapiens, UniProt P21980); assay: Transamidation activity of intact MDAMB231 cell-derived MVs (incorporation of BPA into casein); type: biochemical; details: pre-treatment of intact MDAMB231 cell-derived MVs with inhibitor
# T1 construct: endogenous in cells; host or cells: microvesicles shed by serum-starved MDAMB231 (and U87) cells
# T1 sequence (P21980 1-687): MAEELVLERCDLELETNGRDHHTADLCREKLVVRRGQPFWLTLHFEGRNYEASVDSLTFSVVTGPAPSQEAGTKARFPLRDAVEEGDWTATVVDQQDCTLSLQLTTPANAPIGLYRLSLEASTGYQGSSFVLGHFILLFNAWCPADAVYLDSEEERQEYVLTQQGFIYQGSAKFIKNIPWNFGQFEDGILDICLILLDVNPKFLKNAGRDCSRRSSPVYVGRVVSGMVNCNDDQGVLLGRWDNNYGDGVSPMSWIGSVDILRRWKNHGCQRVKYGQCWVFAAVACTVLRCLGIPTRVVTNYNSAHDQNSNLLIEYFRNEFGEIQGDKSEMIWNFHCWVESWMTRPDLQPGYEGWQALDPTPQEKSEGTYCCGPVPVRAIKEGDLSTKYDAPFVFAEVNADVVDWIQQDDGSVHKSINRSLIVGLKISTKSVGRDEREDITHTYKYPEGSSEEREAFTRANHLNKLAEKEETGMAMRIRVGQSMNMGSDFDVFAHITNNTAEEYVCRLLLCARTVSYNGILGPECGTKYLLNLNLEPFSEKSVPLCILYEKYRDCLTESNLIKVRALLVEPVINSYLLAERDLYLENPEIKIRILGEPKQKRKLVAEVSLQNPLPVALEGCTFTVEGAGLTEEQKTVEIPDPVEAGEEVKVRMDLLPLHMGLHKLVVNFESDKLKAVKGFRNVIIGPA
# Experimental: FIG. 17. Whole cell lysates (WCLs) of serum-starved MDAMB231 cells, as well as intact MVs generated by these cells treated without or with the tTG inhibitors T101 (cell-impermeable) or MDC (cell-permeable), were assayed for transamidation activity as readout by the incorporation of BPA into casein. The samples were then immunoblotted with antibodies against tTG, flotillin-2, and IκBα.
# The transamidation activity in whole cell extracts was readout by the incorporation of BPA into lysate proteins as previously described, whereas the transamidation activity of recombinant tTG (0.1 μM) exposed to increasing concentrations of T101 was determined using a spectrophotometric assay. The transamidation activity associated with MVs was readout by incubating equal amounts (75 μl) of each MV sample in a buffer containing 40 mM N′N-dimethyl casein, 2 mM BPA, 40 mM CaCl2, and 40 mM dithiothreitol for 15 minutes. The reaction was stopped by the addition of Laemmli sample buffer followed by boiling. The reactions were then resolved by SDS-PAGE and the proteins transferred to polyvinylidene difluoride membranes. […]
# [2] = tested on: MDAMB231 cells; assay: MV formation by MDAMB231 cells, immunofluorescence with tTG antibody; type: cell-based, human; details: serum-starved MDAMB231 cells treated with inhibitor
# Experimental: FIG. 38. Serum-starved MDAMB231 cells treated without or with T101, MDC, BFA, or Exo1, were immuno-stained with a tTG antibody. Shown are representative images of the cells exposed to the various inhibitors. Cells forming MVs are denoted with arrows.
# (§1) The MDAMB231, U87, MCF10A, and HeLa cell lines were grown in RPMI 1640 medium containing 10% fetal bovine serum, while the NIH3T3 cell line was grown in DMEM medium containing 10% calf serum. Expression constructs were transfected into cells using Lipofectamine, whereas the control and tTG siRNAs were introduced into cells with Lipofectamine 2000. As indicated, cells were incubated with serum-free medium containing combinations of 0.1 μg/ml EGF, 100 μM MDC, 10 μM T101, 10 μM BFA, and 10 μM Exo1. To mitotically arrest MDAMB231 cells, plates of cells were treated with 10 μg/ml mitomycin-C for 2 hours, before rinsing the solution away and allowing the cells to recover in growth medium (RPMI-1640 medium containing 10% FBS) for a day.
# Cells were fixed with 3.7% paraformaldehyde and then some samples were permeabilized with phosphate-buffered saline (PBS) containing 0.1% Triton X-100. Permeabilized and non-permeabilized samples were incubated with a tTG antibody, and then incubated with Oregon green 488-conjugated secondary antibody. Rhodamine-conjugated phalloidin was used to stain actin and DAPI was used to stain nuclei. The cells were visualized by fluorescent microscopy and the images were captured and processed using IPLABS.
# [3] = tested on: NIH3T3 fibroblasts stably overexpressing Myc-tagged tTG; assay: Cell death assay on NIH3T3 fibroblasts stably overexpressing Myc-tTG; type: cell-based; details: serum-free medium, cells treated with MDC
# Experimental: FIG. 23. Cell death assays were performed on the NIH3T3 stable cell lines maintained in serum-free medium that was treated with T101, MDC, or 2% CS-medium, or was untreated. Data represents the mean±s.d. from at least three independent experiments.
# NIH3T3 cells or MCF10A cells were plated in each well of a 6-well dish and then cultured in medium containing 2% CS or serum-free medium supplemented without or with MVs derived from 5.0×10^6 MDAMB231 cells or U87 cells, and without or with MDC or T101, as indicated. Two days later the cultures were fixed and stained with DAPI for viewing by fluorescence microscopy. Cells undergoing apoptosis were identified by nuclear condensation or blebbing and the percentage of cell death was determined by calculating the ratio of apoptotic to total cells for each condition. These experiments were conducted at least three times and the results from each experiment were averaged together and graphed.
# [4] = tested on: MDAMB231 cells; assay: Shedding of MVs by MDAMB231 cells, immunoblot of flotillin-2 and tTG in MV lysates; type: cell-based, human; details: MDAMB231 cells treated with inhibitor
# Excerpt: FIG. 39. Serum-starved MDAMB231 cells treated without or with the tTG inhibitors T101 and MDC (left panel), transfected with either control siRNA (siCont) or two distinct tTG siRNAs (siTG-1 and siTG-2) (middle panel), or treated without or with the inhibitors of classical secretion, BFA and Exo1 (right panel), were lysed (WCLs) and the MVs released into the medium by the cells were also collected and lysed. The extracts were immunoblotted with antibodies against tTG, the MV-marker flotillin-2, and the cytosolic-specific-marker IκBα.
# For each of the experiments that used MV preparations, the conditioned medium from 5.0×10^6 serum-starved MDAMB231 cells or U87 cells (which is the equivalent of two nearly confluent 150 MM dishes of either of these cell lines) were collected and the MVs isolated from the medium as previously described. […]
# The protein concentrations of the whole cell lysates (WCLs) were determined using the Bio-Rad DC protein assay, while the MV lysates were normalized for comparison by isolating them from the conditioned medium of 5.0×10^6 serum-starved MDAMB231 cells or U87 cells for each of the experimental conditions assayed, and then lysing in 250 μl of cell lysis buffer. […] The primary antibodies were detected with horseradish peroxidase-conjugated secondary antibodies (Amersham Biosciences) followed by exposure to ECL reagent.
# [5] = tested on: HeLa cervical carcinoma cells; assay: MV formation in HeLa cells, rhodamine-phalloidin labeling; type: cell-based, human; details: serum-starved HeLa cells, EGF stimulation
# Experimental: FIG. 2. Quantification of MV production by various cell lines cultured under serum-starved or EGF-stimulated conditions. Cells generating MVs were detected by labeling the samples with rhodamine-conjugated phalloidin. The data shown represents the mean±s.d. from three independent experiments.
# FIG. 3. Images of cells from the experiment performed in FIG. 2. Some of the MVs are denoted with arrows.
# as §1
# [6] = tested on: NIH3T3 fibroblasts; assay: Anchorage-independent growth assay (soft agar) on NIH3T3 fibroblasts incubated with MVs; type: cell-based; details: NIH3T3 cells, U87 cell-derived MVs treated with AG1478
# Experimental: FIG. 21. Anchorage-independent growth assays were performed on fibroblasts incubated with MDAMB231 cell-derived MVs treated without or with T101, the RGD-peptide, or the control RGE-peptide. Data represents the mean±s.d. from at least three independent experiments.
# FIG. 34. MDAMB231 cell-derived MVs transform recipient MCF10A mammary epithelial cells. Anchorage-independent growth assays were performed on NIH3T3 fibroblasts incubated with U87 cell-derived MVs treated without or with the EGF receptor inhibitor AG1478. The culturing medium (including the MVs, T101, and AG1478) for the soft agar assays performed was replenished every third day for 12 days, at which time the colonies that formed were counted. […]
# Parental NIH3T3 cells or MCF10A cells incubated without or with MVs derived from 5.0×10^6 MDAMB231 cells or U87 cells, or NIH3T3 cells stably overexpressing the vector-control, wild-type tTG, or Cdc42 F28L, were plated at a density of 7×10^3 cells/ml in medium containing 0.3% agarose, without or with various inhibitors as indicated, onto underlays composed of growth medium containing 0.6% agarose in six-well dishes. The soft agar cultures were re-fed (including the addition of freshly prepared MVs and treatments with various inhibitors as indicated) every third day for 12 days, at which time the colonies that formed were counted. […]
# [7] = tested on: MDAMB231 cells; assay: Tumor formation assay in nude mice; type: in vivo; details: cells exposed to mitomycin-C before subcutaneous injection into nude mice
# Experimental: FIG. 25. Tumor formation assays were performed in which 5×10^5 mitotically-arrested (using mitomycin-C) MDAMB231 cells (denoted as Mito-C-MDAMB231) expressing either control siRNA (siCont) or tTG siRNAs (denoted as siTG-1 or siTG-2) were subcutaneously injected singly, or combined with 5×10^5 NIH3T3 fibroblasts, into nude mice. As controls, untreated MDAMB231 and NIH3T3 cells were injected into nude mice.
# as §1, with “To mitotically arrest MDAMB231 cells, plates of cells were treated with 10 μg/ml mitomycin-C for 2 hours, before rinsing the solution away and allowing the cells to recover in growth medium (RPMI-1640 medium containing 10% FBS) for a day.” left out
# 5×10^5 mitotically arrested (using mitomycin-C) MDAMB231 cells stably expressing control or tTG siRNAs were combined with 5×10^5 NIH3T3 fibroblasts and growth factor-reduced Matrigel (BD Biosciences) to achieve 30% Matrigel in the final solution. […] After a month, the animals were sacrificed and the resulting tumors that formed for each experimental condition were excised and counted. […]
Compound,effect on MV formation [2],effect on shedding of MVs (flotillin-2 and tTG in isolated MVs) [4],also measured
"CN(C)c1cccc2c(S(=O)(=O)NCCCCCN)cccc12 [MDC, monodansylcadaverine]",had no effect,,crosslinking activity associated with MVs (levels of BPA-labeled casein) [1]: greatly diminished; resistance to serum-deprivation-induced apoptosis [3]: ablated
COC(=O)c1ccccc1NC(=O)c1ccc(F)cc1 [ExoI],not sensitive,nor was it affected,
"epidermal growth factor [EGF, growth factor used to stimulate cells]",,,MV formation [5]: induced
COc1cc2ncnc(Nc3cccc(Cl)c3)c2cc1OC [AG1478],,,anchorage-independent growth advantage imparted by U87 cell-derived MVs [6]: insensitive
CO[C@@]12[C@H](COC(N)=O)C3=C(C(=O)C(C)=C(N)C3=O)N1C[C@@H]1N[C@@H]12 [mitomycin-C],,,ability of MDAMB231 cells to form tumors [7]: inhibited
"C[C@H]1CCC/C=C/[C@@H]2C[C@H](O)C[C@H]2[C@H](O)/C=C/C(=O)O1 [BFA, brefelden A]",not sensitive,nor was it affected,
